From US9718811B2, “(S)-enantiomer of mepazine” (Helmholtz Zentrum München—Deutsches Forschungszentrum für …, priority 2013, dated 2017) come the findings set out here.

Data set [1] concerns ABC DLBCL cell-line OCI-Ly10. Description: DLBCL xenograft model, OCI-Ly10 tumor. The following applies: 6 or 12 mg/kg IP once daily, started 13 days after transplantation. It counts as in vivo, mice (NSG). As to the method:
(§1) Tumors were engrafted in 6- to 8-week-old female NOD.Cg-Prkdc^scid I12rg^tm1Wj1/SzJ (NSG) mice by subcutaneous injection of 4×10^6 tumor cells (OCI-Ly10 or Su-DHL-6) resuspended in matrigel (BD). Both tumors were engrafted simultaneously on opposite flanks of individual mice, with four mice for each treatment group. […] A daily application of 150 or 300 μg of compound per animal (˜25 g) was used, corresponding to approximately 6 or 12 mg/kg, respectively. The tumor size was measured every other day after visual appearance using a caliper and calculated as square millimeters (length×width). Mice were sacrificed when the tumors were above 250 mm^2 and statistical data was analyzed with a two-way ANOVA test.
(§2) In the DLBCL xenograft model NSG mice were subcutaneously injected with the MALT1-dependent ABC DLBCL cell line OCI-Ly10 and the MALT1-independent GCB DLBCL cell-line Su-DHL6 in opposing flanks of individual mice.

Data set [2] has as its system GCB DLBCL cell-line Su-DHL-6. Put plainly: DLBCL xenograft model, Su-DHL-6 control tumor. It counts as in vivo, mice (NSG). The following applies: 6 or 12 mg/kg IP once daily, started 13 days after transplantation. The method, then:
as §1, §2

Data set [3] is described as follows: Racemization check by chiral HPLC. The class given is physicochemical. As to the method: Enantiomeric purity of the thioridazine and mepazine enantiomers was determined by comparison to commercially available racemates using a ChiralPak IA 250×4.6 mm (L×I.D.) […] tris(3,5-dimethylphenylcarbamate) column. For thioridazine an isocratic gradient of 1% ethanol in hexane containing 0.1% diethylamine modifier was used. In the case of mepazine an isocratic gradient of 1% isopropanol in hexane containing 0.1% diethylamine modifier was used. Both were run at 1 ml/min.
(S)-Mepazine provided a single peak by Chiral HPLC under conditions in which the individual enantiomers are resolved.

Data set [4] can be described thus: Chronic progressive EAE (experimental allergic encephalomyelitis) model. The class given is in vivo, C57Bl/6 mice. The method, then: For the EAE model first 1 mg/ml MOG35-55 peptides (MOG: myelin/oligodendrocyte glycoprotein; accession no. AAF74786) were emulsified 1:1 in Complete Freund's Adjuvant (CFA, incl. 5 mg/ml heat-killed M. tuberculum H37RA). On day one female C57Bl/6 mice (8-10 weeks old) were subcutaneously treated with 0.1 ml of MOG/CFA (0.1 mg MOG/0.25 mg CFA per mouse) in both flanks. In addition 0.2 ml pertussis toxin ([…]) was intraperitoneally injected immediately after (200 ng per mouse), followed by a second injection the day after. […] The clinical score of the mice was determined according to the following parameters: Score 0=no obvious signs of motor dysfunction in mice compared to non-immunized control; 0.5—distal tail limpness; 1=limp or floppy tail; 2=limp tail and weakness in hind legs; 3=limp tail and complete paralysis of hind legs OR limp tail with paralysis of one front and one hind leg; 4=limp tail, complete hind leg and partial front leg paralysis; 5=complete hind and complete front leg paralysis, no movement around cage OR mouse is spontaneously rolling in cage OR mouse found dead due to paralysis.
At the end of the study mice were euthanized and blood serum and also the brain and the spinal cord was collected for a histopathology analysis. Here foci of inflammatory cell infiltrate (at least 50 μm) into the spinal cord were counted and scored using the following criteria: 0=normal; 0.5 very minimal; 1=minimal, 2-4 generally less than 100 μm width/length; 2=mild, 5-7 small discreet foci; 3=moderate, 8-10 small plus larger coalescing areas; 4=marked, 11-13 small plus larger coalescing areas; 5=severe, often multiple coalescing >13. Percent area of white matter that bad demyelination, edema, dilated axons was estimated and used to determine a score using the following criteria: 0=normal; 1=minimal, 1-5% of total are affected; 2=mild, 5-25% of total area affected; 3=moderate, 26-50% of total area affected; 4=marked, 51-75% of total area affected; 5=>75% of total area affected.

Data set [5] is described as follows: CIA (collagen induced arthritis) model. The note with it: paw histopathology. The class given is in vivo, DBA1/J mice.
The target in the next data set is T1, GST-MALT1325-760 (Homo sapiens, UniProt Q9UDY8).
T1 sequence (Q9UDY8 325-760 limits assumed): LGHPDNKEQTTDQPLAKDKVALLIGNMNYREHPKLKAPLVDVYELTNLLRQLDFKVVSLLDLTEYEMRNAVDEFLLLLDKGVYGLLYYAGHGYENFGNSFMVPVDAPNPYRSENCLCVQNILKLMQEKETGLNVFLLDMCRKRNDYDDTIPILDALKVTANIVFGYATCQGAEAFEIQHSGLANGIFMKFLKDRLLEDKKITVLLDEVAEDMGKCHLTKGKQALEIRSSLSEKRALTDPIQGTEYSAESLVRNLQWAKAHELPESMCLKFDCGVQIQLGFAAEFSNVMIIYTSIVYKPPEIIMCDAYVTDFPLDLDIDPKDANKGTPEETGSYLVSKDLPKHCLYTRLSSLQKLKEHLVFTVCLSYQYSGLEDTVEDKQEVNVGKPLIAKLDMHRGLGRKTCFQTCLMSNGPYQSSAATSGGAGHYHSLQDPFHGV
Description: MALT1 paracaspase activity (fluorogenic cleavage) assay.

The next data set concerns the target T2, human MALT1 (L339-R719) (Homo sapiens, UniProt Q9UDY8).
T2 construct: human MALT1 (L339-R719) was used; only implied by the Ni-NTA purification; made in house; host or cells: Escherichia coli Rosetta (DE3)
T2 sequence (Q9UDY8 339-719): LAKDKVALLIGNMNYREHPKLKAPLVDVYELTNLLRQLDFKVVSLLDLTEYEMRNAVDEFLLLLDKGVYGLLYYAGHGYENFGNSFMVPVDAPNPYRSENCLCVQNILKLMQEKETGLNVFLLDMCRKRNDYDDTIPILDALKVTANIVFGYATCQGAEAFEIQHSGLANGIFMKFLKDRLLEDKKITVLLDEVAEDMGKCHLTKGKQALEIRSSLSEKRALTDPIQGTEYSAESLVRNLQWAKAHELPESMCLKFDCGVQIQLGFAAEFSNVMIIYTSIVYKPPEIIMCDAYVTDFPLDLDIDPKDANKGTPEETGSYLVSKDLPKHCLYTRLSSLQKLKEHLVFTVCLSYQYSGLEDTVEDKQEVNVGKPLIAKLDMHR
Put plainly: Tryptophan fluorescence quenching assay. The note with it: monomeric MALT1 (L339-R719), quenching of W580, 20° C.; FIG. 2a/b; read-out: binding affinity KD.

[6] abbreviates: IP 8 mg/kg twice daily, histopathology, 8 mg/kg.
[7] abbreviates: IC50 (MALT1 cleavage assay), wt GST-MALT1325-760, Ac-LRSR-AMC substrate, FIG. 2c/d.
[8] abbreviates: IC50 on recombinant MALT1 (fluorogenic MALT1 cleavage assay), FIG. 3a/b.

Entries after “also recorded” stand apart in the source; their conditions may differ.

Description for human MALT1 (L339-R719): For crystallization and tryptophan fluorescence quenching human MALT1 (L339-R719) was used.
Fluorescence quenching of tryptophan W580 was measured with the fluorescence spectrometer (FluoroMax-P, HORIBA Jobin Yvon) at an extinction wavelength of 285 nm and an emission wavelength of 329 nm. The measurement was performed by 2 μl titration steps of 400 μM, 800 μM, 4 mM, 8 mM thioridazine and mepazine stock solutions in H2O against 0.5 μM monomeric MALT1 (L339-R719) in 1.6 ml assay buffer (5 mM Hepes pH 7.0, 300 mM NaCl) at 20° C. The quenching assay of thioridazine and mepazine enantiomers was performed equally to racemates measurements.
For this assay advantage was taken from the fact that W580 is the only tryptophan residue in the MALT1Casp-Ig3 construct and is in close proximity to the bound tricyclic moiety of the phenothiazine derivatives.

Turning to `CN1CCC[C@H](CN2c3ccccc3Sc3ccccc32)C1` [(S)-mepazine, 10-{[(3S)-1-methylpiperidin-3-yl]methyl}-10H-phenothiazine], the “growth of the ABC DLBCL (OCI-Ly10) tumor” value in data set [1] is on record as “selective growth reduction”. In data set [2], the “growth of the GCB DLBCL (Su-DHL-6) control tumor” value is “not affected”. Moreover, the “racemization on standing or in solution” value in data set [3] was “No racemization”. For the same compound, in data set [4] (IP 8 mg/kg twice daily), the “EAE induced weight loss” value was “reduced EAE induced weight loss”. Further, the “EAE severity (clinical score)” value in data set [4] (IP 8 mg/kg twice daily (16 mg/kg), started at clinical score of around 1) is listed as “reduction of EAE severity”. In data set [4] (setting [6]), the “demyelination in the spinal cord” value is “reduced; also recorded: inhibition” and the “inflammatory foci formation in the spinal cord” value is reported as “reduced; also recorded: inhibition”. Moreover, in data set [5], the CIA-related inflammation result is “strong reduction; also recorded: decrease”, the bone resorption result was “strong reduction; also recorded: decrease”, the cartilage damage entry is “strong reduction; also recorded: decrease” and the pannus formation entry was “strong reduction; also recorded: decrease”.
One may read the IC50 as the concentration that inhibits the measured activity by half. What is called Kd is the free concentration of one partner at which half of the binding sites on the other are occupied at equilibrium, for simple one-to-one binding. Regarding `CSc1ccc2c(c1)N(CCC1CCCCN1C)c1ccccc1S2` (single isomer, unassigned) [(R)-thioridazine], the IC50 at GST-MALT1325-760 (setting [7]) worked out at 5 ± 1.5 µM; at GST-MALT1325-760 (setting [8]), 4.99 ± 1.52 µM. Besides, the Kd on human MALT1 (L339-R719) worked out at 23 ± 0.6 µM.
For `CSc1ccc2c(c1)N(CCC1CCCCN1C)c1ccccc1S2` (single isomer, unassigned) [(S)-thioridazine], in that order: 4.8 ± 0.9 µM, 4.83 ± 0.88 µM and 21.3 ± 0.5 µM.
